ChEMBL document CHEMBL4428025 (J Med Chem, 2016)

Key:
[1] = Oral bioavailability in Wistar rat at 0.3 mg/kg; format: ADME, organism-based; settings: in vivo
[2] = Oral bioavailability in cynomolgus monkey at 0.3 mg/kg; format: ADME, organism-based, Macaca fascicularis; settings: in vivo
[3] = Ratio of drug level in brain to plasma in CD rat at 10 to 70 mg/kg, po administered through gavage measured at 6 hrs; format: ADME, organism-based; settings: read-out: BPR

Compound	bioavailability [1] [%]	bioavailability [2] [%]	Kp at 6 h [3]
O=C1NCN(c2ccccc2)C12CCN([C@@H]1CC[C@H]3CCCc4cccc1c43)CC2	4	1	
NC(=O)C1(c2ccccc2)CC2CCC(C1)N2C(c1ccccc1Cl)c1ccccc1Cl (stereo not drawn)			0.43 to 0.59
